Assay results reported in ChEMBL document CHEMBL4476877, “Treatment of COPD, gastro-esophageal reflux disease (GERD), food allergies and other gastrointestinal conditions and disorders ameliorated by proper histamine management using a combination of histidine decarboxylase inhibitors, LRA drugs, anti-H1 and/or anti-H2 drugs” (2012).
Calls of active or inactive are those of the source. The calls are words filed in the database; no cut-off is given here.

Experiments:
[1] = species: Homo sapiens; assay: Improvement in disease symptoms in patient with COPD assessed as TEV level at 200 mg/day co-treated with 10 mg/day Loratadine and measured after 6 weeks by spirometry relative to control; type: functional
[2] = tested on: Homo sapiens; assay: Improvement in disease symptoms in GERD patient assessed as improvement in disease symptoms at 200 mg dosed daily co-treated with 10 mg anti-H1 drug loratadine dosed daily relative to control; type: functional
[3] = species: Homo sapiens; assay: Improvement in disease symptoms in patient with COPD assessed as TEV level at 200 mg/day co-treated with 10 mg/day Loratadine and measured after 12 months by spirometry (reference value: 1.5 L/secs); type: functional
[4] = species: Homo sapiens; assay: Improvement in disease symptoms in patient with COPD assessed as TEV level at 200 mg/day co-treated with 10 mg/day Loratadine and measured after 6 months by spirometry (reference value: 1.2 L/secs); type: functional
[5] = species: Homo sapiens; assay: Improvement in disease symptoms in patient with COPD assessed as TEV level at 200 mg/day co-treated with 10 mg/day Loratadine and measured after 6 weeks by spirometry (reference value: 0.4 L/secs); type: functional
[6] = species: Homo sapiens; assay: Improvement in disease symptoms in patient with COPD assessed as TEV level at 200 mg/day co-treated with 10 mg/day Loratadine and measured after 6 weeks by spirometry (reference value: 1.8 L/secs); type: functional
[7] = species: Homo sapiens; assay: Improvement in disease symptoms in patient with COPD assessed as TEV level at 200 mg/day co-treated with 10 mg/day Loratadine and measured after 6 weeks by spirometry (reference value: 1.5 L/secs); type: functional
[8] = species: Homo sapiens; assay: Improvement in disease symptoms in patient with COPD assessed as TEV level at 200 mg/day co-treated with 10 mg/day Loratadine and measured after 6 months by spirometry (reference value: 0.4 L/secs); type: functional
[9] = species: Homo sapiens; assay: Improvement in disease symptoms in patient with COPD assessed as TEV level at 200 mg/day co-treated with 10 mg/day Loratadine and measured after 6 months by spirometry (reference value: 1.8 L/secs); type: functional
[10] = species: Homo sapiens; assay: Improvement in disease symptoms in patient with COPD assessed as TEV level at 200 mg/day co-treated with 10 mg/day Loratadine and measured after 8 months by spirometry (reference value: 1.4 L/secs); type: functional
[11] = species: Homo sapiens; assay: Improvement in disease symptoms in patient with COPD assessed as increase in TEV level at 200 mg/day co-treated with 10 mg/day Loratadine and measured after 10 months by spirometry relative to untreated control; type: functional
[12] = species: Homo sapiens; assay: Improvement in disease symptoms in patient with COPD assessed as TEV level at 200 mg/day co-treated with 10 mg/day Loratadine and measured after 6 weeks by spirometry (reference value: 1.2 L/secs); type: functional
[13] = species: Homo sapiens; assay: Improvement in disease symptoms in patient with COPD assessed as TEV level at 200 mg/day co-treated with 10 mg/day Loratadine and measured after 6 months by spirometry (reference value: 1.5 L/secs); type: functional
[14] = species: Homo sapiens; assay: Improvement in disease symptoms in patient with COPD assessed as TEV level at 200 mg/day co-treated with 10 mg/day Loratadine and measured after 6 weeks by spirometry (reference value: 1.4 L/secs); type: functional
[15] = species: Homo sapiens; assay: Improvement in disease symptoms in patient with COPD assessed as increase in TEV level at 200 mg/day co-treated with 10 mg/day Loratadine and measured after 8 months by spirometry relative to untreated control; type: functional
[16] = species: Homo sapiens; assay: Improvement in disease symptoms in patient with COPD assessed as TEV level at 200 mg/day co-treated with 10 mg/day Loratadine and measured after 6 months by spirometry (reference value: 1.4 L/secs); type: functional
[17] = species: Homo sapiens; assay: Improvement in disease symptoms in patient with COPD assessed as TEV level at 200 mg/day co-treated with 10 mg/day Loratadine and measured after 10 months by spirometry (reference value: 0.4 L/secs); type: functional
[18] = tested on: Homo sapiens; assay: Improvement in disease symptoms in GERD patient assessed as improvement in disease symptoms at 200 mg dosed daily co-treated with 10 mg anti-H1 drug loratadine dosed daily and 150 mg anti-H2 drug Ranitidine dosed daily; type: functional
[19] = species: Homo sapiens; assay: Improvement in disease symptoms in patient with COPD assessed as TEV level at 200 mg/day co-treated with 10 mg/day Loratadine and measured after 12 months by spirometry (reference value: 1.8 L/secs); type: functional
[20] = tested on: Homo sapiens; assay: Improvement in disease symptoms in GERD patient assessed as reduction in regurgitation at 10 mg dosed daily; type: functional, organism-based
[21] = tested on: Homo sapiens; assay: Improvement in disease symptoms in GERD patient assessed as reduction in cough at 10 mg dosed daily; type: functional, organism-based
[22] = tested on: Homo sapiens; assay: Improvement in disease symptoms in GERD patient assessed as improvement in global disease scores at 10 mg dosed daily; type: functional, organism-based
[23] = tested on: Homo sapiens; assay: Improvement in disease symptoms in GERD patient assessed as reduction in heartburns at 10 mg dosed daily; type: functional, organism-based

Molecule `CCOc1c(N)c2c(c(OCC)c1OCC)C(C1c3c(cc4c(c3OC)OCO4)CCN1C)OC2=O` (stereo not drawn) [TRITOQUALINE] has an Activity [1] of 71.4%, an Activity [2] of 82.9% and an Activity [3] of 2 L/s. The Activity [4] was 1.9 L/s, the Activity [5] was 0.6 L/s and the Activity [6] was 2.1 L/s. For the same molecule, the Activity [7] was 1.7 L/s, the Activity [8] was 0.8 L/s and the Activity [9] was 2.1 L/s. For the same molecule, the Activity [10] was 2.4 L/s, the Activity [11] was 125% and the Activity [12] was 1.8 L/s. The Activity [13] was 1.9 L/s, the Activity [14] was 1.7 L/s and the Activity [15] was 71.4%. For the same molecule, the Activity [16] was 2.1 L/s, the Activity [17] was 0.9 L/s and the Activity [18] was 209.5%. The Activity [19] was 2.6 L/s.

For `CCOC(=O)N1CCC(=C2c3ccc(Cl)cc3CCc3cccnc32)CC1`, the Activity [20] was “inactive”, the Activity [21] was “inactive” and the Activity [22] was “inactive”. The Activity [23] was “inactive”.
